From patent US9969742B2, “Imidazotriazinone compounds” (Ironwood Pharmaceuticals, Inc., priority 2012, dated 2018)
Where two headings read alike, the source gives them in different places.

Key:
Format in all cases: biochemical
[1] = target: T1, PDE9A2 (Homo sapiens, UniProt O76083); assay: Phosphodiesterase enzyme screening assay, PDE9A2
T1 construct: purchased Reaction Biology Corporation, Malvern, Pa
Summary of the method: (§1)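 Enzyme activity is measured as conversion of fluorescent cGMP (4.0 μM) to 5′-GMP after 1 h at R.T. in pH 7.5 HEPES/MgCl2/DTT buffer. Product is separated from substrate by microfluidic mobility shift, and inhibition is derived by comparison with control wells.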

[2] = target: T2, PDE1B (Homo sapiens, UniProt Q01064); assay: Phosphodiesterase enzyme screening assay, PDE1B
T2 construct: purchased Reaction Biology Corporation, Malvern, Pa
T2 sequence (Q01064 whole entry): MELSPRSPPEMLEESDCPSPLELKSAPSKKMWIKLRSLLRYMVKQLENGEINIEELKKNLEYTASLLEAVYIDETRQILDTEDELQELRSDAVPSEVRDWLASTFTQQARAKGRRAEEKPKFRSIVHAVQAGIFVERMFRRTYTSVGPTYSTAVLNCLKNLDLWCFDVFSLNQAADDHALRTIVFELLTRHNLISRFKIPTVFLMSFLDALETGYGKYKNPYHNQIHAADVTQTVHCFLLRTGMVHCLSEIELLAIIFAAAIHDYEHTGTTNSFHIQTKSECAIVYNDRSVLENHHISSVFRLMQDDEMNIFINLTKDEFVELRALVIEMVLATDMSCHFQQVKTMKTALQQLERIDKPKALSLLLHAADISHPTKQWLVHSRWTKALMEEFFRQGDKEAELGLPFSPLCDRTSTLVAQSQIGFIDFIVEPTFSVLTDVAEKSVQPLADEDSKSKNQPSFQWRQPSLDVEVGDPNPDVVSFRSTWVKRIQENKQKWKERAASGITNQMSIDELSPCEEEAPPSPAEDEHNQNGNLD
Summary of the method: as §1

[3] = target: T3, PDE1A (Homo sapiens, UniProt P54750); assay: Phosphodiesterase enzyme screening assay, PDE1A
T3 construct: purchased Reaction Biology Corporation, Malvern, Pa
T3 sequence (P54750 whole entry): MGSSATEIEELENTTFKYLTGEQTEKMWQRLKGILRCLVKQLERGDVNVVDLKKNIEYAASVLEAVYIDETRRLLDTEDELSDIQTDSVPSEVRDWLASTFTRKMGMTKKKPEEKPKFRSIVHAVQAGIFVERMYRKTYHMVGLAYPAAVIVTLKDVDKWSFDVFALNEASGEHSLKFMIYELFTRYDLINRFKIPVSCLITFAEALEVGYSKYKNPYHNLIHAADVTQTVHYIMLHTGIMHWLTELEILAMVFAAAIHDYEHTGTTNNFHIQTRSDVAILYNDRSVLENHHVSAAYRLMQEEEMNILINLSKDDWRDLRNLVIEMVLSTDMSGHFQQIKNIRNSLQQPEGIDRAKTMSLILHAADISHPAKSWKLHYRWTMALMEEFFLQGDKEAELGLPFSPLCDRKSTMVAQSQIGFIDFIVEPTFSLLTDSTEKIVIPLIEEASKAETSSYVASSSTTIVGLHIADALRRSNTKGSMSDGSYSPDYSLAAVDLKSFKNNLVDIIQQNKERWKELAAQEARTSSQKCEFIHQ
Summary of the method: as §1

[4] = ratio of IC50 values, PDE1B versus PDE9A2, value greater than 1 indicates greater selectivity for PDE9A2
[5] = ratio of IC50 values, PDE1A versus PDE9A2, value greater than 1 indicates greater selectivity for PDE9A2
[6] = IC50 band, 4.0 μM cGMP substrate, 1 hour at R.T.
[7] = ratio of IC50 values PDE1B vs PDE9A2, value greater than 1 indicates greater selectivity for PDE9A2
[8] = ratio of IC50 values PDE1A vs PDE9A2, value greater than 1 indicates greater selectivity for PDE9A2
[9] = 4.0 μM cGMP substrate, 1 hour at R.T., read-out: Band (PDE9A2 IC50)
[10] = ratio of IC50 values PDE1B / PDE9A2, value greater than 1 indicates greater selectivity for PDE9A2
[11] = ratio of IC50 values PDE1A / PDE9A2, value greater than 1 indicates greater selectivity for PDE9A2
[12] = Table 1, 10 concentrations, 4.0 μM cGMP substrate, 1 hour at R.T., read-out: Band (PDE9A2 IC50)
[13] = Table 1, ratio of IC50 values, value greater than 1 indicates greater selectivity for PDE9A2
[14] = Table 3, 4.0 μM cGMP substrate, 1 hour at R.T., read-out: Band (PDE9A2 IC50)
[15] = ratio of IC50 values, PDE1B versus PDE9A2, value greater than 1 = greater selectivity for PDE9A2
[16] = ratio of IC50 values, PDE1A versus PDE9A2, value greater than 1 = greater selectivity for PDE9A2

T1 sequence (O76083 1-533 isoform O76083-2): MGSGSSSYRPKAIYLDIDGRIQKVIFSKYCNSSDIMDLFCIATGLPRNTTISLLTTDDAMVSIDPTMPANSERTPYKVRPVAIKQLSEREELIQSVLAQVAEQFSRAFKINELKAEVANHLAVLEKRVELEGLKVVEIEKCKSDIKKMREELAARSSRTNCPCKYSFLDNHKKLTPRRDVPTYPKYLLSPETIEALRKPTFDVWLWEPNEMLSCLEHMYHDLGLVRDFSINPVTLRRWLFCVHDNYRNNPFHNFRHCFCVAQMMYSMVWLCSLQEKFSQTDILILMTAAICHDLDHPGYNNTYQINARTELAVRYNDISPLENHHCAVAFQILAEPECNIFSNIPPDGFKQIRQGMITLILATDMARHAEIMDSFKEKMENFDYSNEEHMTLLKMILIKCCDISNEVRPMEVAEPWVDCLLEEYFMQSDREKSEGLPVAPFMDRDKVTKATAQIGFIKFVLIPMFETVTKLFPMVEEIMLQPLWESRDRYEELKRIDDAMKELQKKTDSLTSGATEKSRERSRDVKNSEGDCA

## Cc1cc(F)c(F)cc1-c1ncc2c(=O)[nH]c(C3CN(Cc4nc5ccccn5n4)CC3C)nn12 (single isomer, unassigned; (+)) [(+)-2-((3,4-trans)-1-([1,2,4]triazolo[1,5-a]pyridin-2-ylmethyl)-4-methylpyrrolidin-3-yl)-7-(4,5-difluoro-2-methylphenyl)imidazo[5,1-f][1,2,4]triazin-4(3H)-one]
[1]; read-out: Band (PDE9A2 IC50)
  IC50: < 1000 nM
[2]; [4]
  PDE1B selectivity (versus PDE9A2): 2140
[3]; [5]
  PDE1A selectivity (versus PDE9A2): 1000

## Cc1cc(F)ccc1-c1ncc2c(=O)[nH]c(C3CN(Cc4nc5ccccn5n4)CC3C)nn12 (single isomer, unassigned; (+)) [(+)-2-((3,4-trans)-1-([1,2,4]triazolo[1,5-a]pyridin-2-ylmethyl)-4-methylpyrrolidin-3-yl)-7-(4-fluoro-2-methylphenyl)imidazo[5,1-f][1,2,4]triazin-4(3H)-one]
[1]; [6]
  IC50: < 1000 nM
[2]; [7]
  PDE1B selectivity (versus PDE9A2): 473
[3]; [8]
  PDE1A selectivity (versus PDE9A2): 215

## CC1CN(Cc2nc3ccccn3n2)CC1c1nn2c(-c3ccc(F)cc3)ncc2c(=O)[nH]1 (single isomer, unassigned; (+)) [(+)-2-((3,4-trans)-1-([1,2,4]triazolo[1,5-a]pyridin-2-ylmethyl)-4-methylpyrrolidin-3-yl)-7-(4-fluorophenyl)imidazo[5,1-f][1,2,4]triazin-4(3H)-one]
[1]; read-out: Band (PDE9A2 IC50)
  IC50: < 1000 nM
[2]; [4]
  PDE1B selectivity (versus PDE9A2): 87
[3]; [5]
  PDE1A selectivity (versus PDE9A2): 87

## Cc1ccncc1-c1ncc2c(=O)[nH]c(C3CN(Cc4nc5ccccn5n4)CC3C)nn12 (single isomer, unassigned; (+)) [(+)-2-((3,4-trans)-1-([1,2,4]triazolo[1,5-a]pyridin-2-ylmethyl)-4-methylpyrrolidin-3-yl)-7-(4-methylpyridin-3-yl)imidazo[5,1-f][1,2,4]triazin-4(3H)-one]
[1]; read-out: Band (PDE9A2 IC50)
  IC50: < 1000 nM
[2]; [4]
  PDE1B selectivity (versus PDE9A2): 115
[3]; [5]
  PDE1A selectivity (versus PDE9A2): 56

## Cc1ccc(F)cc1-c1ncc2c(=O)[nH]c(C3CN(Cc4nc5ccccn5n4)CC3C)nn12 (single isomer, unassigned; (+)) [(+)-2-((3,4-trans)-1-([1,2,4]triazolo[1,5-a]pyridin-2-ylmethyl)-4-methylpyrrolidin-3-yl)-7-(5-fluoro-2-methylphenyl)imidazo[5,1-f][1,2,4]triazin-4(3H)-one]
[1]; [6]
  IC50: < 1000 nM
[2]; [7]
  PDE1B selectivity (versus PDE9A2): 473
[3]; [8]
  PDE1A selectivity (versus PDE9A2): 487

## Cc1ccccc1-c1ncc2c(=O)[nH]c(C3CN(Cc4nc5ccccn5n4)CC3C)nn12 (single isomer, unassigned; (+)) [(+)-2-((3,4-trans)-1-([1,2,4]triazolo[1,5-a]pyridin-2-ylmethyl)-4-methylpyrrolidin-3-yl)-7-(o-tolyl)imidazo[5,1-f][1,2,4]triazin-4(3H)-one]
[1]; read-out: Band (PDE9A2 IC50)
  IC50: < 1000 nM
[2]; [4]
  PDE1B selectivity (versus PDE9A2): 429
[3]; [5]
  PDE1A selectivity (versus PDE9A2): 490

## CCC(CC)c1ncc2c(=O)[nH]c(C3CN(Cc4nc5ccccn5n4)CC3C)nn12 (single isomer, unassigned; (+)) [(+)-2-((3,4-trans)-1-([1,2,4]triazolo[1,5-a]pyridin-2-ylmethyl)-4-methylpyrrolidin-3-yl)-7-(pentan-3-yl)imidazo[5,1-f][1,2,4]triazin-4(3H)-one]
[1]; [9]
  IC50: < 1000 nM
[2]; [10]
  PDE1B selectivity (versus PDE9A2): 306
[3]; [11]
  PDE1A selectivity (versus PDE9A2): 386

## CC1CN(Cc2nc3ccccn3n2)CC1c1nn2c(C3CCOCC3)ncc2c(=O)[nH]1 (single isomer, unassigned; (+)) [(+)-2-((3,4-trans)-1-([1,2,4]triazolo[1,5-a]pyridin-2-ylmethyl)-4-methylpyrrolidin-3-yl)-7-(tetrahydro-2H-pyran-4-yl)imidazo[5,1-f][1,2,4]triazin-4(3H)-one]
[1]; [12]
  IC50: < 1000 nM
[2]; [13]
  PDE1B selectivity (versus PDE9A2): 457
[3]; [13]
  PDE1A selectivity (versus PDE9A2): 563

## CC1CN(Cc2nc3ccccn3n2)CC1c1nn2c(C3CCCC3)ncc2c(=O)[nH]1 (single isomer, unassigned; (+)) [(+)-2-((3,4-trans)-1-([1,2,4]triazolo[1,5-a]pyridin-2-ylmethyl)-4-methylpyrrolidin-3-yl)-7-cyclopentylimidazo[5,1-f][1,2,4]triazin-4(3H)-one]
[1]; read-out: Band (PDE9A2 IC50)
  IC50: < 1000 nM
[2]; [4]
  PDE1B selectivity (versus PDE9A2): 204
[3]; [5]
  PDE1A selectivity (versus PDE9A2): 98

## CC1CN(Cc2ccc3nsnc3c2)CC1c1nn2c(C3CCOCC3)ncc2c(=O)[nH]1 (single isomer, unassigned; (+)) [(+)-2-((3,4-trans)-1-(benzo[c][1,2,5]thiadiazol-5-ylmethyl)-4-methylpyrrolidin-3-yl)-7-(tetrahydro-2H-pyran-4-yl)imidazo[5,1-f][1,2,4]triazin-4(3H)-one]
[1]; [14]
  IC50: < 1000 nM
[2]; [15]
  PDE1B selectivity (versus PDE9A2): 473
[3]; [16]
  PDE1A selectivity (versus PDE9A2): 212

## CC1CN(Cc2ccoc2)CC1c1nn2c(C3CCOCC3)ncc2c(=O)[nH]1 (single isomer, unassigned; (+)) [(+)-2-((3,4-trans)-1-(furan-3-ylmethyl)-4-methylpyrrolidin-3-yl)-7-(tetrahydro-2H-pyran-4-yl)imidazo[5,1-f][1,2,4]triazin-4(3H)-one]
[1]; [14]
  IC50: < 1000 nM
[2]; [15]
  PDE1B selectivity (versus PDE9A2): 123
[3]; [16]
  PDE1A selectivity (versus PDE9A2): 68

## Cc1cnccc1-c1ncc2c(=O)[nH]c(C3CN(Cc4cn5ccccc5n4)CC3C)nn12 (single isomer, unassigned; (+)) [(+)-2-((3,4-trans)-1-(imidazo[1,2-a]pyridin-2-ylmethyl)-4-methylpyrrolidin-3-yl)-7-(3-methylpyridin-4-yl)imidazo[5,1-f][1,2,4]triazin-4(3H)-one]
[1]; [9]
  IC50: < 1000 nM
[2]; [10]
  PDE1B selectivity (versus PDE9A2): 149
[3]; [11]
  PDE1A selectivity (versus PDE9A2): 155

## Cc1ccncc1-c1ncc2c(=O)[nH]c(C3CN(Cc4cn5ccccc5n4)CC3C)nn12 (single isomer, unassigned; (+)) [(+)-2-((3,4-trans)-1-(imidazo[1,2-a]pyridin-2-ylmethyl)-4-methylpyrrolidin-3-yl)-7-(4-methylpyridin-3-yl)imidazo[5,1-f][1,2,4]triazin-4(3H)-one]
[1]; read-out: Band (PDE9A2 IC50)
  IC50: < 1000 nM
[2]; [4]
  PDE1B selectivity (versus PDE9A2): 230
[3]; [5]
  PDE1A selectivity (versus PDE9A2): 128

## Cc1ccccc1-c1ncc2c(=O)[nH]c(C3CN(Cc4cn5ccccc5n4)CC3C)nn12 (single isomer, unassigned; (+)) [(+)-2-((3,4-trans)-1-(imidazo[1,2-a]pyridin-2-ylmethyl)-4-methylpyrrolidin-3-yl)-7-(o-tolyl)imidazo[5,1-f][1,2,4]triazin-4(3H)-one]
[1]; read-out: Band (PDE9A2 IC50)
  IC50: < 1000 nM
[2]; [4]
  PDE1B selectivity (versus PDE9A2): 661
[3]; [5]
  PDE1A selectivity (versus PDE9A2): 326

## CCC(CC)c1ncc2c(=O)[nH]c(C3CN(Cc4cn5ccccc5n4)CC3C)nn12 (single isomer, unassigned; (+)) [(+)-2-((3,4-trans)-1-(imidazo[1,2-a]pyridin-2-ylmethyl)-4-methylpyrrolidin-3-yl)-7-(pentan-3-yl)imidazo[5,1-f][1,2,4]triazin-4(3H)-one]
[1]; [9]
  IC50: < 1000 nM
[2]; [10]
  PDE1B selectivity (versus PDE9A2): 48
[3]; [11]
  PDE1A selectivity (versus PDE9A2): 51

## CC1CN(Cc2cn3ccccc3n2)CC1c1nn2c(C3CCOCC3)ncc2c(=O)[nH]1 (single isomer, unassigned; (+)) [(+)-2-((3,4-trans)-1-(imidazo[1,2-a]pyridin-2-ylmethyl)-4-methylpyrrolidin-3-yl)-7-(tetrahydro-2H-pyran-4-yl)imidazo[5,1-f][1,2,4]triazin-4(3H)-one]
[1]; [12]
  IC50: < 1000 nM
[2]; [13]
  PDE1B selectivity (versus PDE9A2): 734
[3]; [13]
  PDE1A selectivity (versus PDE9A2): 754

## CC1CN(Cc2ccc3nccn3n2)CC1c1nn2c(C3CCOCC3)ncc2c(=O)[nH]1 (single isomer, unassigned; (+)) [(+)-2-((3,4-trans)-1-(imidazo[1,2-b]pyridazin-6-ylmethyl)-4-methylpyrrolidin-3-yl)-7-(tetrahydro-2H-pyran-4-yl)imidazo[5,1-f][1,2,4]triazin-4(3H)-one]
[1]; [12]
  IC50: < 1000 nM
[2]; [13]
  PDE1B selectivity (versus PDE9A2): 633
[3]; [13]
  PDE1A selectivity (versus PDE9A2): 232

## CC1CN(Cc2ccc3cnccc3c2)CC1c1nn2c(C3CCOCC3)ncc2c(=O)[nH]1 (single isomer, unassigned; (+)) [(+)-2-((3,4-trans)-1-(isoquinolin-6-ylmethyl)-4-methylpyrrolidin-3-yl)-7-(tetrahydro-2H-pyran-4-yl)imidazo[5,1-f][1,2,4]triazin-4(3H)-one]
[1]; [12]
  IC50: < 1000 nM
[2]; [13]
  PDE1B selectivity (versus PDE9A2): 335
[3]; [13]
  PDE1A selectivity (versus PDE9A2): 145

## CC1CN(Cc2ccc3ccncc3c2)CC1c1nn2c(C3CCOCC3)ncc2c(=O)[nH]1 (single isomer, unassigned; (+)) [(+)-2-((3,4-trans)-1-(isoquinolin-7-ylmethyl)-4-methylpyrrolidin-3-yl)-7-(tetrahydro-2H-pyran-4-yl) imidazo [5,1-f] [1,2,4] triazin-4(3H)-one]
[1]; [12]
  IC50: < 1000 nM
[2]; [13]
  PDE1B selectivity (versus PDE9A2): 893
[3]; [13]
  PDE1A selectivity (versus PDE9A2): 223
